Experimental data: US20230174484A1, “ANTAGONISTS OF GPR39 PROTEIN” (Oregon Health & Science University, priority 2020, published 2023)

Biological target: T1, human GPR39 receptor (Homo sapiens, UniProt O43194)
T1 construct: PC3 Cells, Expressing the Endogenous Human GPR39 Receptor; endogenous in cells; host or cells: PC3 (human prostate adenocarcinoma) cells
T1 sequence (O43194 1-453): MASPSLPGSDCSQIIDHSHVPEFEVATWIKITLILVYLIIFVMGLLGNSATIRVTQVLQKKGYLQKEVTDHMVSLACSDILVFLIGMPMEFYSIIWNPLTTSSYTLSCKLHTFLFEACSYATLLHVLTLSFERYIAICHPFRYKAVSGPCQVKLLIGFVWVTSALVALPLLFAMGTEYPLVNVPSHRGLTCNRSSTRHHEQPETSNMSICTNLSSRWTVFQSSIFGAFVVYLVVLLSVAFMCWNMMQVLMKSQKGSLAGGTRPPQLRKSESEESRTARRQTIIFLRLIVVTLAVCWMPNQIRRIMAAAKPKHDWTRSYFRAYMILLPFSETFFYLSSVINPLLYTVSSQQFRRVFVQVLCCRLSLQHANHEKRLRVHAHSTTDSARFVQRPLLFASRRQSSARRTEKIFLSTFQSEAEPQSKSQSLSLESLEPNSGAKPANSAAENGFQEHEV
Assay: Measurement of intracellular calcium response in PC3 cells (FLIPR), antagonism of the C3 agonist response
Assay type: cell-based
Settings: for Ki: functional pKi (modified Cheng-Prusoff), inhibition of the C3 (TC-G 1008) response at EC90, 30 μM ZnCl2, read-out: fpKi activity
Outline: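 PC3 cells with endogenous human GPR39 were loaded with Calcium-6 and read by FLIPR, with compounds tested in buffer with 30 μM final ZnCl2 and 0.32% DMSO. Peak Ca2+ signal was scored as % inhibition of the EC90 C3 response, fitted by four-parameter logistic. Functional pKi was derived via the modified Cheng-Prusoff equation.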

Row | Compound | Ki [µM] | EC90 (PC-3, hGPR39 receptor agonist, calcium response, read-out: EC90 (concentration producing 90% of the maximal response)) [µM]
1 | Cn1c(Sc2ccccn2)nnc1-c1ccc(NC(=O)C2CC2)cc1N1CCCC1 [Example 116, N-[4-(4-methyl-5-pyridin-2-ylsulfanyl-1,2,4-triazol-3-yl)-3-pyrrolidin-1-ylphenyl]cyclopropanecarboxamide] | 1.26 to 6.31 | 
2 | O=C(Nc1ccc(C(=O)N2CCN(c3ccncc3)CC2)c(N2CCCCCC2)c1)C1CC1 [Example 57, N-[3-(azepan-1-yl)-4-(4-pyridin-4-ylpiperazine-1-carbonyl)phenyl]cyclopropanecarboxamide] | 1.26 to 6.31 | 
3 | CSc1nnc(-c2ccc(NC(=O)C3CC3)cc2N2CCCCCC2)n1C [Example 109, N-[3-(azepan-1-yl)-4-(4-methyl-5-methylsulfanyl-1,2,4-triazol-3-yl)phenyl]Cyclopropanecarboxamide] | 1.26 to 6.31 | 
4 | Cn1c(Sc2ccccc2)nnc1-c1ccc(NC(=O)C2CC2)cc1N1CCCCCC1 [Example 110, N-[3-(azepan-1-yl)-4-(4-methyl-5-phenylsulfanyl-1,2,4-triazol-3-yl)phenyl]cyclopropanecarboxamide] | 0.0631 to 0.251 | 
5 | CC1CN(C(=O)c2ccc(NC(=O)C3CC3)cc2N2CCCCCC2)CCN1C (stereo not drawn) [Example 55, N-[3-(azepan-1-yl)-4-(3,4-dimethylpiperazine-1-carbonyl)phenyl]cyclopropanecarboxamide] | 0.316 to 1 | 
6 | CC1CN(C)CCN1C(=O)c1ccc(NC(=O)C2CC2)cc1N1CCCCCC1 (stereo not drawn) [Example 37, N-[3-(azepan-1-yl)-4-(2,4-dimethylpiperazine-1-carbonyl)phenyl]cyclopropanecarboxamide] | 0.316 to 1 | 
7 | CN1CCN(C(=O)c2ccc(-c3nccn3C)cc2N2CCCC2)C(c2ccccc2)C1 (racemic) [Example 121, [4-(1-methylimidazol-2-yl)-2-pyrrolidin-1-ylphenyl]-(4-methyl-2-phenylpiperazin-1-yl)methanone] | 1.26 to 6.31 | 
8 | O=C(Nc1ccc(C(=O)N2CCN(c3ccccc3)CC2)c(N2CCCCCC2)c1)C1CC1 [Example 52, N-(3-(azepan-1-yl)-4-(4-phenylpiperazine-1-carbonyl)phenyl)cyclopropanecarboxamide] | 0.0631 to 0.251 | 
9 | O=C(Nc1ccc(C(=O)N2CCS(=O)(=O)CC2)c(N2CCCC2)c1)C1CC1 [Example 60, N-[4-(1,1-dioxo-1,4-thiazinane-4-carbonyl)-3-pyrrolidin-1-ylphenyl] Cyclopropanecarboxamide] | 0.0631 to 0.251 | 
10 | Cc1nnc(-c2ccc(C(=O)N3CCC4(CC3)CC4)c(-n3ccc(C(F)(F)F)n3)c2)[nH]1 [Example 214, 6-azaspiro[2.5]octan-6-yl-[4-(5-methyl-4H-1,2,4-triazol-3-yl)-2-[3-(trifluoromethyl)pyrazol-1-yl]phenyl]methanone] | ≤ 0.0501 | 
11 | CCCN1CCN(C(=O)c2ccc(NC(=O)C3CC3)cc2N2CCC(c3ccccc3)C2)CC1 (stereo not drawn) [Example 5, N-(3-(3-phenylpyrrolidin-1-yl)-4-(4-propylpiperazine-1-carbonyl)phenyl) cyclopropanecarboxamide] | 0.316 to 1 | 
12 | O=C(Nc1ccc(C(=O)N2CCN(Cc3ccccc3)CC2)c(N2CCCCCC2)c1)C1CC1 [Example 50, N-(3-(azepan-1-yl)-4-(4-benzylpiperazine-1-carbonyl)phenyl)cyclopropanecarboxamide] | 0.0631 to 0.251 | 
13 | CNc1nc(NCc2ccc(NS(C)(=O)=O)cc2Cl)cc(-c2ccccn2)n1 [Example C3, reference compound] |  | 1.5
14 | Cc1noc(-c2ccc(C(=O)N3CCC(C(F)(F)F)CC3)c(N3CCCC3)c2)n1 [Example 152, [4-(3-methyl-1,2,4-oxadiazol-5-yl)-2-pyrrolidin-1-ylphenyl]-[4-(trifluoromethyl)piperidin-1-yl]methanone] | 0.316 to 1 | 
15 | Cn1c(-c2ccccc2)nnc1-c1ccc(NC(=O)C2CC2)cc1N1CCCCCC1 [Example 112, N-[3-(azepan-1-yl)-4-(4-methyl-5-phenyl-1,2,4-triazol-3-yl)phenyl]cyclopropanecarboxamide] | 0.316 to 1 | 
16 | COc1cccc(CN2CCN(C(=O)c3ccc(NC(=O)C4CC4)cc3N3CCCCCC3)CC2)c1 [Example 25, N-(3-(azepan-1-yl)-4-(4-(3-methoxybenzyl)piperazine-1-carbonyl)phenyl) Cyclopropanecarboxamide] | 0.316 to 1 | 
17 | O=C(Nc1ccc(C(=O)N2CCS(=O)(=O)CC2)c(N2CCOC(C(F)(F)F)C2)c1)C1CC1 (racemic) [Example 186, N-[4-(1,1-dioxo-1,4-thiazinane-4-carbonyl)-3-[2-(trifluoromethyl)morpholinyl]phenyl]cyclopropanecarboxamide] | 0.316 to 1 | 
18 | CN1CCn2c(cnc2-c2ccc(NC(=O)C3CC3)cc2N2CCCCCC2)C1 [Example 102, N-[3-(azepan-1-yl)-4-{7-methyl-5H,6H,7H,8H-imidazo[1,5-a]pyrazin-3-yl}phenyl]cyclopropanecarboxamide] | 0.0631 to 0.251 | 
19 | CCCN1CCN(C(=O)c2ccc(NC(=O)C3CC3)cc2N2CC[C@@H](C(C)C)C2)CC1 [Example 2, (S)-N-(3-(3-isopropylpyrrolidin-1-yl)-4-(4-propylpiperazine-1-carbonyl)phenyl)cyclopropanecarboxamide] | ≤ 0.0501 | 
20 | CC1CCN(c2cc(NC(=O)C3CC3)ccc2C(=O)N2CCC(C(F)(F)F)CC2)C1 (single isomer, unassigned) [Example 63a, (N-[3-(3R or 3S-methylpyrrolidin-l-yl)-4-[4-(trifluoromethyl)piperidine-1-carbonyl]phenyl]cyclopropanecarboxamide] | ≤ 0.0501 | 

The remaining lines, values ahead:

Row | Ki [µM] | EC90 (PC-3, hGPR39 receptor agonist, calcium response, read-out: EC90 (concentration producing 90% of the maximal response)) [µM] | Compound
21 | 1.26 to 6.31 |  | CC1CCN(c2cc(NC(=O)C3CC3)ccc2C(=O)N2CCN(C)CC2c2ccccc2)C1 (single isomer, unassigned) [Example 64b, (2S, 3R) or (2R, 3S) or (2R, 3R) or (2S, 3S) N-[4-(4-methyl-2-phenylpiperazine-1-carbonyl)-3-(3-methylpyrrolidin-1-yl)phenyl] cyclopropanecarboxamide]
22 | ≤ 0.0501 |  | CN1CCN(C(=O)c2ccc(NC(=O)C3CC3)cc2N2CCC3(CCC3)C2)C(c2ccccc2)C1 (racemic) [Example 66c, N-[3-(6-azaspiro[3.4]octan-6-yl)-4-(4-methyl-2-phenylpiperazine-1-carbonyl)phenyl]cyclopropanecarboxamide]
23 | ≤ 0.0501 |  | CC1CC(C)CN(c2cc(NC(=O)C3CC3)ccc2C(=O)N2CCN(C)CC2c2ccccc2)C1 (single isomer, unassigned) [Example 68a, Syn 2R or 2S N-[3-[3,5-dimethylpiperidin-1-yl]-4-(4-methyl-2-phenylpiperazine-1-carbonyl)phenyl] cyclopropanecarboxamide]
24 | 1.26 to 6.31 |  | CN1CCN(C(=O)c2ccc(NC(=O)C3CC3)cc2N2CCC(F)(F)C2)C(c2ccccc2)C1 (single isomer, unassigned) [Example 202a, N-[3-(3,3-difluoropyrrolidin-1-yl)-4-(2R or 2S)-4-methyl-2-phenylpiperazine-1-carbonyl)phenyl]cyclopropanecarboxamide]
25 | ≤ 0.0501 |  | CN1CCN(C(=O)c2ccc(NC(=O)C3CC3)cc2N2CCCC2)C(c2ccccc2Cl)C1 (single isomer, unassigned) [Example 170a, (2R or 2S) N-[4-[2-(2-chlorophenyl)-4-methylpiperazine-1-carbonyl]-3-pyrrolidin-1-ylphenyl] cyclopropanecarboxamide]
26 | 0.0631 to 0.251 |  | CN1CCN(C(=O)c2ccc(NC(=O)C3CC3)cc2N2CCCC2)C(c2ccccc2F)C1 (racemic) [Example 84c, N-[4-[2-(2-fluorophenyl)-4-methylpiperazine-1-carbonyl]-3-pyrrolidin-1-ylphenyl]cyclopropanecarboxamide]
27 | ≤ 0.0501 |  | CN1CCN(C(=O)c2ccc(NC(=O)C3CC3)cc2N2CCCC2)C(c2cccc(Cl)c2)C1 (single isomer, unassigned) [Example 171b, (2R or 2S) N-[4-[2-(3-chlorophenyl)-4-methylpiperazine-1-carbonyl]-3-pyrrolidin-1-ylphenyl] cyclopropanecarboxamide]
28 | 0.0631 to 0.251 |  | C[C@@H]1C[C@H](C)CN(c2cc(NC(=O)C3CC3)ccc2-c2ncc3n2CCN(C)C3)C1 [Example 104b, N-[3-(3,5-dimethylpiperidin-1-yl)-4-(7-methyl-6,8-dihydro-5H-imidazo[1,5-a]pyrazin-3-yl)phenyl] cyclopropanecarboxamide]
29 | 1.26 to 6.31 |  | Cc1nnc(-c2ccc(C(=O)N3CCN(C)CC3c3ccccc3)c(N3CCCC3)c2)[nH]1 (single isomer, unassigned) [Example 150b, (2R or 2S) (4-methyl-2-phenylpiperazin-1-yl)-[4-(5-methyl-4H-1,2,4-triazol-3-yl)-2-pyrrolidin-1-ylphenyl]methanone]
30 | ≤ 0.0501 |  | CC1CCN(c2cc(NC(=O)C3CC3)ccc2C(=O)N2CCN(C)CC2c2ccccc2)C1 (single isomer, unassigned) [Example 64a, (2S, 3R) or (2R, 3S) or (2R, 3R) or (2S, 3S) N-[4-(4-methyl-2-phenylpiperazine-1-carbonyl)-3-(3-methylpyrrolidin-1-yl)phenyl] cyclopropanecarboxamide]
